Among the data in ChEMBL document CHEMBL5291721, “A preclinical secondary pharmacology resource illuminates target-adverse drug reaction associations of marketed drugs” (Nat Commun, 2023) are AC50 values, retold here.

In assay [1] the target is Neurotensin receptor type 1 (Homo sapiens, UniProt P30989).
Assay [2] has as its target T1, Gastric inhibitory polypeptide receptor (Homo sapiens, UniProt P48546).
T1 sequence (P48546 whole entry): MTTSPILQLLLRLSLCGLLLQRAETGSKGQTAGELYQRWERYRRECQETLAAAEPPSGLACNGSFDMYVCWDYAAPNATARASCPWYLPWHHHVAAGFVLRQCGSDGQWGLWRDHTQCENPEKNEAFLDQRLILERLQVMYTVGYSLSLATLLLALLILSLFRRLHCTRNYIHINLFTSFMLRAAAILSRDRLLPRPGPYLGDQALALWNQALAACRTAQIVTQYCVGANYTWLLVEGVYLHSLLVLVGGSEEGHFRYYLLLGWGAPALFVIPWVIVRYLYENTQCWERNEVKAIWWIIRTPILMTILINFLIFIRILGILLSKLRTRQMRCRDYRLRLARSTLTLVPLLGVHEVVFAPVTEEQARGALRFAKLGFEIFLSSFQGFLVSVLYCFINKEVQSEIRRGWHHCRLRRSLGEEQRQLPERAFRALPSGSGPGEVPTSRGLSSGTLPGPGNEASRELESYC

Assay [3] concerns the target T2, Neuropeptide Y receptor type 2 (Homo sapiens, UniProt P49146).
T2 sequence (P49146 whole entry): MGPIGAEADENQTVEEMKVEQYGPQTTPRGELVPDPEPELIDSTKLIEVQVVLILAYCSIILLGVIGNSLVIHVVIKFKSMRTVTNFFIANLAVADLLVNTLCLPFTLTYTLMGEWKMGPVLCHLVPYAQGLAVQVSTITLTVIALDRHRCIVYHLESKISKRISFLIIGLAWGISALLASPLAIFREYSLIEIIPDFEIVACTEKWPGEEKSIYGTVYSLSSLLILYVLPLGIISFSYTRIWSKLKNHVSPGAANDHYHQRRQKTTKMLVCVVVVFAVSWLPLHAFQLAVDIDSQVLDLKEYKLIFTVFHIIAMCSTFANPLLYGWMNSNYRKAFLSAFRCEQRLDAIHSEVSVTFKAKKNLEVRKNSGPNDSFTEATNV

Assay [4] has as its target T3, Thromboxane A2 receptor (Homo sapiens, UniProt P21731).
T3 sequence (P21731 whole entry): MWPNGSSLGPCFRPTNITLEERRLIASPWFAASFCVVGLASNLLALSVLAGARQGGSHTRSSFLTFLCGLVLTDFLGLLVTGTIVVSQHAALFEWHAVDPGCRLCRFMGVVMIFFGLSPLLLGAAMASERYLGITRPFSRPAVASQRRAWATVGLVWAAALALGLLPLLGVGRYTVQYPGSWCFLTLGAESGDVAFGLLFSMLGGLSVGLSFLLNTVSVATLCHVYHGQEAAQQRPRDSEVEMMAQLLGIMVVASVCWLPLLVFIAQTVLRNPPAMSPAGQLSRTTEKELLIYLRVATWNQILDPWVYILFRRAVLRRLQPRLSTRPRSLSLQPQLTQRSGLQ
It counts as functional, cell-based.

For assay [5], the target named is T4, Endothelin receptor type B (Homo sapiens, UniProt P24530).
T4 sequence (P24530 whole entry): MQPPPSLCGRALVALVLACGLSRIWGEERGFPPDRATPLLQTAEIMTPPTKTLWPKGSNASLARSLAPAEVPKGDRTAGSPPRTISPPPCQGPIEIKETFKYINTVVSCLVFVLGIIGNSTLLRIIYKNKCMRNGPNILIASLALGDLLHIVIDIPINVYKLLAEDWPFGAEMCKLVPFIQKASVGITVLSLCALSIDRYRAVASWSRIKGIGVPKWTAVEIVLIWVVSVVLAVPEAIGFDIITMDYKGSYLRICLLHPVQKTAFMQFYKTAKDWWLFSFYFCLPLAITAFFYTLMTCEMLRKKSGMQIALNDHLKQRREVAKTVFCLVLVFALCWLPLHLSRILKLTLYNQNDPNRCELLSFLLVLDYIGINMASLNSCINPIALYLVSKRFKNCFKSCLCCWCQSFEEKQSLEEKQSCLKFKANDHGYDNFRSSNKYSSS

The target in assay [6] is Gamma-aminobutyric acid receptor subunit alpha-1 (Rattus norvegicus, UniProt P62813).
Sequence of Gamma-aminobutyric acid receptor subunit alpha-1 (P62813 whole entry): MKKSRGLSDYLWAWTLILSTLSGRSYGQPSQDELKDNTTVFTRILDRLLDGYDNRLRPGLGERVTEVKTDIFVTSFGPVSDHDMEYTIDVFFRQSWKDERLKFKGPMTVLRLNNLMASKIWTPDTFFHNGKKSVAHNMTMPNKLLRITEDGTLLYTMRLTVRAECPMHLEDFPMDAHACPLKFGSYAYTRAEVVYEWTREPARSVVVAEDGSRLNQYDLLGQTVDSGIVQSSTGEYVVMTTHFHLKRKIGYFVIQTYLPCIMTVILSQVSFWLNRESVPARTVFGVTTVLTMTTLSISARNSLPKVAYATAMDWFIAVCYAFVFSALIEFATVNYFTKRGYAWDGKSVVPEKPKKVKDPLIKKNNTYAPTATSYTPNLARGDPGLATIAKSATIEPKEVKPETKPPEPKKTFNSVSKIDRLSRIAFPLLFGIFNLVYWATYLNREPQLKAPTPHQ
Assay [7] addresses Mu-type opioid receptor (Homo sapiens, UniProt P35372). The assay can be described thus: biochemical. Type of assay: functional.
In assay [8] the target is T5, Adenosine receptor A3 (Homo sapiens, UniProt P0DMS8).
T5 sequence (P0DMS8 whole entry): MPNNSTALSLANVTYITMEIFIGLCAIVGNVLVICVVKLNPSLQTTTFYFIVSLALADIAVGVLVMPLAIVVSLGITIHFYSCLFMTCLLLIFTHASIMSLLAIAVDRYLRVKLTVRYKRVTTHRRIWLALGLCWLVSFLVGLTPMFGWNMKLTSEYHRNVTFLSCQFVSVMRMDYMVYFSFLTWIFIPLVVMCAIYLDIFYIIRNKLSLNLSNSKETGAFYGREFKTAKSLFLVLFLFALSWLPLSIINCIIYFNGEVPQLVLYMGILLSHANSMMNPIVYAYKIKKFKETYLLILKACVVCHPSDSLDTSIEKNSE

Assay [9] addresses Histamine H3 receptor (Homo sapiens, UniProt Q9Y5N1).
For assay [10], the target named is T6, Alpha-1A adrenergic receptor (Homo sapiens, UniProt P35348).
T6 sequence (P35348 whole entry): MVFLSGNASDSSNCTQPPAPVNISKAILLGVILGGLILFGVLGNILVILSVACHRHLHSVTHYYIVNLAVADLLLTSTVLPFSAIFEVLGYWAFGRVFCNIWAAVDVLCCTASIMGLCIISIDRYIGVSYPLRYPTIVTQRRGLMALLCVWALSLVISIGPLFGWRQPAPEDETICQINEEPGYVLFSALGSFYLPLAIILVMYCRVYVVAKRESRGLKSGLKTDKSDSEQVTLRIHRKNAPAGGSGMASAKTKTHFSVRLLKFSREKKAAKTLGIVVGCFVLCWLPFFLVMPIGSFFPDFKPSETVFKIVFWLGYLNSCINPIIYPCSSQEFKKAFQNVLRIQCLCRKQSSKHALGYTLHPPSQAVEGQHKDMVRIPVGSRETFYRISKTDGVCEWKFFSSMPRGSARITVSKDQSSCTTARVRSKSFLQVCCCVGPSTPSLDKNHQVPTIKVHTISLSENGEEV

The target of assay [11] is 5-hydroxytryptamine receptor 2B (Homo sapiens, UniProt P41595).
Sequence of 5-hydroxytryptamine receptor 2B (P41595 whole entry): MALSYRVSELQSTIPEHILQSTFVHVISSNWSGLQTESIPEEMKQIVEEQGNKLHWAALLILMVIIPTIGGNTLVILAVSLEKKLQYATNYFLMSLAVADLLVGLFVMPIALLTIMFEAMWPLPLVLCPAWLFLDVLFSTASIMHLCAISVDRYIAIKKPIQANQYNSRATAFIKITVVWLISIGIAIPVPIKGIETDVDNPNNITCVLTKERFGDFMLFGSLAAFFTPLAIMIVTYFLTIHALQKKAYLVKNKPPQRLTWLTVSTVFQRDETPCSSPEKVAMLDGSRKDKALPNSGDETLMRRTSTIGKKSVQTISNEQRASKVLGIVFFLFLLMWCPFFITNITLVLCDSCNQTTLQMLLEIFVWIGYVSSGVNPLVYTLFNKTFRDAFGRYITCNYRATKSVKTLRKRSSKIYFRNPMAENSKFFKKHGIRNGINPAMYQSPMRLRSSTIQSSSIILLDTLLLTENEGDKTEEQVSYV
Note: assay procedure not described here.

Sequence of Mu-type opioid receptor (P35372 whole entry): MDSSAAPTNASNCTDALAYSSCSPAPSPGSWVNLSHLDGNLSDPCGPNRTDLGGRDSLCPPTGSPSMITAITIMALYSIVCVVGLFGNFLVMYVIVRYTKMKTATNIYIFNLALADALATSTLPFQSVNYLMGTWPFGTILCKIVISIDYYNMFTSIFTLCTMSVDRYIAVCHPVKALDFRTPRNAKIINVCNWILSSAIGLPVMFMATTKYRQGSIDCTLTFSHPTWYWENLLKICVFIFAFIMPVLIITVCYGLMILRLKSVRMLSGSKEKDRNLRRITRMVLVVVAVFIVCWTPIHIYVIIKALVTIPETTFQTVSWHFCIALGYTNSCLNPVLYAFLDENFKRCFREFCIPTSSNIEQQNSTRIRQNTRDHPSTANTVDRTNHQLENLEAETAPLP
Sequence of Histamine H3 receptor (Q9Y5N1 whole entry): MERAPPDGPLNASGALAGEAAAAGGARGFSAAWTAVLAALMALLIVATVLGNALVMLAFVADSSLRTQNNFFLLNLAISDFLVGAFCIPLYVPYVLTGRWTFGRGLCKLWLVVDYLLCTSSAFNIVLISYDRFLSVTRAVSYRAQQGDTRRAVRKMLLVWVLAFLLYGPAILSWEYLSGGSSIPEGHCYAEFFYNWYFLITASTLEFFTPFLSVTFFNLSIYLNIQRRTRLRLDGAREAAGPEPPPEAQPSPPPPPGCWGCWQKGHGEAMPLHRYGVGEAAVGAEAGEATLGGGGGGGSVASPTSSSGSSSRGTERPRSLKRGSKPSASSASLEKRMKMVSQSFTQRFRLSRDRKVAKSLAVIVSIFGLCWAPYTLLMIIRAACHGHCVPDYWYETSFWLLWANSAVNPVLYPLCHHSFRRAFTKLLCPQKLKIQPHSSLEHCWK
Sequence of Neurotensin receptor type 1 (P30989 whole entry): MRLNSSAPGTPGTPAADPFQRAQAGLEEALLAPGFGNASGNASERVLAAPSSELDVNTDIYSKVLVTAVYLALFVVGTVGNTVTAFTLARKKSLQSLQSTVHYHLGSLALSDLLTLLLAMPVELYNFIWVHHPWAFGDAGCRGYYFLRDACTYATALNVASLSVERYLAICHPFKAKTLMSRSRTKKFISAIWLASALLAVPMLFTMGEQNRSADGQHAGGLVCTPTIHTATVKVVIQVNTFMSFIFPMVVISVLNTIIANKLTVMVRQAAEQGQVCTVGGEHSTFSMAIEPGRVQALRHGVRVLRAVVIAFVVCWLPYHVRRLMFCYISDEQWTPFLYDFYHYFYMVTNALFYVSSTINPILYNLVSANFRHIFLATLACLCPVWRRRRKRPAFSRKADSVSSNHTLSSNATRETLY

The AC50 is the concentration at which the activity in the assay is half-maximal. Read a low AC50 as greater potency. Turning to `CN1CCN(C2=Nc3ccccc3Oc3ccc(Cl)cc32)CC1` [LOXAPINE], the AC50 in [1], in [2], in [3], in assay [4], in assay [5] and in [6] was more than 30 µM in each case. The AC50 in [7] was more than 30 µM; in assay [8], 27.4 µM; in assay [9] it was more than 30 µM.

For the compound `CC12CC3CC(C)(C1)CC(N)(C3)C2` [MEMANTINE], the AC50 was more than 30 µM in [1]; more than 30 µM in assay [2]; more than 30 µM in assay [3]; more than 30 µM in assay [5]; more than 10 µM in assay [10].

Turning to `CCOC(=O)C1=C(C)NC(C)=C(C(=O)OC)C1c1cccc([N+](=O)[O-])c1` (stereo not given) [NITRENDIPINE], the AC50 in [1] is more than 30 µM; in assay [2], more than 30 µM; in assay [3], more than 30 µM; in assay [5], more than 30 µM; in assay [10] it was more than 10 µM; in [11], more than 10 µM.

On to `[H]/N=C(/N)N/C(=N/[H])NCCc1ccccc1` [PHENFORMIN], for which the AC50 in assay [1] was more than 30 µM; in assay [2], more than 30 µM; in [3], more than 30 µM; in [5], more than 30 µM; in assay [10], 15 µM; in [7] it was more than 30 µM. The half-maximal activity concentration (AC50) in assay [11] came to 8.9 µM.

For `CC(N)C(O)c1ccccc1` (stereo not given) [PHENYLPROPANOLAMINE], the AC50 in [1] was more than 30 µM; in [2] it was more than 30 µM; in assay [3], more than 30 µM; in assay [5], more than 30 µM; in assay [10], more than 10 µM; in assay [11], more than 10 µM.

Consider `CC(C)NCC(O)c1ccc(O)c(O)c1` (stereo not given) [ISOPROTERENOL], for which the AC50 was more than 30 µM in [1]; more than 30 µM in assay [2]; more than 30 µM in assay [3]; more than 30 µM in [5]; more than 10 µM in assay [11].

Regarding `OC1(c2ccc(Cl)cc2)c2ccccc2C2=NCCN21` (stereo not given) [MAZINDOL], the AC50 in assay [1] was more than 30 µM; in [2], more than 30 µM; in assay [3], more than 30 µM; in [5], 33.1 µM; in [10] it was more than 10 µM; in [7], 16 µM. The compound also had an AC50 in assay [11] of more than 10 µM.

As to `CCC(=O)O[C@]1(C(=O)SCF)[C@H](C)C[C@H]2[C@@H]3C[C@H](F)C4=CC(=O)C=C[C@]4(C)[C@@]3(F)[C@@H](O)C[C@@]21C` [FLUTICASONE PROPIONATE], the AC50 in [1] is more than 30 µM; in assay [2], more than 30 µM; in assay [3], more than 30 µM; in [4], more than 30 µM; in [5], more than 30 µM; in assay [10] it was more than 10 µM. For the same compound, the half-maximal activity concentration (AC50) in assay [6] was more than 30 µM; in [7] it was more than 30 µM; in [8], 23.2 µM; in [11] it was more than 10 µM; in assay [9], more than 30 µM.

With `Cc1cnc(C(=O)NCCc2ccc(S(=O)(=O)NC(=O)NC3CCCCC3)cc2)cn1` [GLIPIZIDE], the AC50 in assay [1] is more than 30 µM; in [2] it was more than 30 µM; in assay [3], more than 30 µM; in [4], more than 30 µM; in [5], more than 30 µM; in assay [10], more than 10 µM. Moreover, in [9], the AC50 is more than 30 µM.

Regarding `CC(CCc1ccc(O)cc1)NCCc1ccc(O)c(O)c1` (stereo not given) [DOBUTAMINE], the AC50 in [1] is more than 30 µM; in [2] it was more than 30 µM; in assay [3], more than 30 µM; in [5], more than 30 µM; in assay [10] it was 0.255 µM; in assay [7] it was more than 30 µM. The same compound showed an AC50 in assay [11] of more than 10 µM.

In the case of `CC(C)COCC(CN(Cc1ccccc1)c1ccccc1)N1CCCC1` (stereo not given) [BEPRIDIL], the AC50 in assay [1] was more than 30 µM; in assay [2], more than 30 µM; in [3], more than 30 µM; in assay [5] it was more than 30 µM; in [7], 17 µM.
